Measurements taken from the CheMixHub viscosity set.

Experiment: xn = mol fraction of the nth substance listed

CCC(C)=O + C1CCCCC1
Conditions | viscosity [mPa·s]
293.15 K, 101.33 kPa, x2 = 0.0479 | 0.401
293.15 K, 101.33 kPa, x2 = 0.0956 | 0.404
293.15 K, 101.33 kPa, x2 = 0.1983 | 0.433
293.15 K, 101.33 kPa, x2 = 0.3046 | 0.466
293.15 K, 101.33 kPa, x2 = 0.4002 | 0.488
293.15 K, 101.33 kPa, x2 = 0.5028 | 0.53
293.15 K, 101.33 kPa, x2 = 0.6056 | 0.581
293.15 K, 101.33 kPa, x2 = 0.703 | 0.641
293.15 K, 101.33 kPa, x2 = 0.8048 | 0.72
293.15 K, 101.33 kPa, x2 = 0.9029 | 0.824
293.15 K, 101.33 kPa, x2 = 0.9515 | 0.888
298 K, 101.3 kPa, x2 = 0.126 | 0.426
298 K, 101.3 kPa, x2 = 0.2633 | 0.448
298 K, 101.3 kPa, x2 = 0.4524 | 0.501
298 K, 101.3 kPa, x2 = 0.6037 | 0.554
298 K, 101.3 kPa, x2 = 0.8267 | 0.685
298.15 K, 101 kPa, x2 = 0.1 | 0.41
298.15 K, 101 kPa, x2 = 0.2 | 0.425
298.15 K, 101 kPa, x2 = 0.3 | 0.444
298.15 K, 101 kPa, x2 = 0.4 | 0.472
298.15 K, 101 kPa, x2 = 0.5 | 0.508
298.15 K, 101 kPa, x2 = 0.6 | 0.548
298.15 K, 101 kPa, x2 = 0.7 | 0.595
298.15 K, 101 kPa, x2 = 0.8 | 0.665
298.15 K, 101 kPa, x2 = 0.9 | 0.752
298.15 K, 101.33 kPa, x2 = 0.0479 | 0.381
298.15 K, 101.33 kPa, x2 = 0.0956 | 0.39
298.15 K, 101.33 kPa, x2 = 0.1983 | 0.41
298.15 K, 101.33 kPa, x2 = 0.3046 | 0.441
298.15 K, 101.33 kPa, x2 = 0.4002 | 0.459
298.15 K, 101.33 kPa, x2 = 0.5028 | 0.498
298.15 K, 101.33 kPa, x2 = 0.6056 | 0.543
298.15 K, 101.33 kPa, x2 = 0.703 | 0.597
298.15 K, 101.33 kPa, x2 = 0.8048 | 0.668
298.15 K, 101.33 kPa, x2 = 0.9029 | 0.76
298.15 K, 101.33 kPa, x2 = 0.9515 | 0.816
303.15 K, 101.33 kPa, x2 = 0.0479 | 0.363
303.15 K, 101.33 kPa, x2 = 0.0956 | 0.37
303.15 K, 101.33 kPa, x2 = 0.1983 | 0.388
303.15 K, 101.33 kPa, x2 = 0.3046 | 0.419
303.15 K, 101.33 kPa, x2 = 0.4002 | 0.433
303.15 K, 101.33 kPa, x2 = 0.5028 | 0.468
303.15 K, 101.33 kPa, x2 = 0.6056 | 0.51
303.15 K, 101.33 kPa, x2 = 0.703 | 0.558
303.15 K, 101.33 kPa, x2 = 0.8048 | 0.622
303.15 K, 101.33 kPa, x2 = 0.9029 | 0.705
303.15 K, 101.33 kPa, x2 = 0.9515 | 0.754
307.35 K, 101.33 kPa, x1 = 0.1093 | 0.648
307.35 K, 101.33 kPa, x1 = 0.361 | 0.504
307.35 K, 101.33 kPa, x1 = 0.4975 | 0.453
307.35 K, 101.33 kPa, x1 = 0.555 | 0.429
307.35 K, 101.33 kPa, x1 = 0.6809 | 0.413
307.35 K, 101.33 kPa, x1 = 0.8865 | 0.366
318 K, 101.3 kPa, x2 = 0.1257 | 0.349
318 K, 101.3 kPa, x2 = 0.2611 | 0.3682
318 K, 101.3 kPa, x2 = 0.4518 | 0.3996
318 K, 101.3 kPa, x2 = 0.6033 | 0.4343
318 K, 101.3 kPa, x2 = 0.8254 | 0.5157

COC(C)=O + C1CCCCC1
viscosity [mPa·s], 101 kPa
Conditions | 298.15 K | 308.15 K
x1 = 0.055 | 0.839 | 0.699
x1 = 0.1546 | 0.759 | 0.614
x1 = 0.2543 | 0.689 | 0.547
x1 = 0.3548 | 0.627 | 0.493
x1 = 0.4537 | 0.572 | 0.45
x1 = 0.4985 | 0.551 | 0.435
x1 = 0.5556 | 0.525 | 0.417
x1 = 0.6544 | 0.483 | 0.392
x1 = 0.7479 | 0.448 | 0.374
x1 = 0.8548 | 0.413 | 0.36
x1 = 0.9548 | – | 0.352

COC(C)=O + C1COCCO1
303.15 K, 101.3 kPa
Conditions | viscosity [mPa·s]
x2 = 0.1026 | 0.3813
x2 = 0.3032 | 0.4727
x2 = 0.5004 | 0.5895
x2 = 0.7187 | 0.7642
x2 = 0.8981 | 0.9562

CC(=O)OC(C)C(C)C (stereo unspecified) + C=CC#N
viscosity [mPa·s], 101.33 kPa
Conditions | x2 = 0.096 | x2 = 0.1903 | x2 = 0.287 | x2 = 0.3796 | x2 = 0.4771 | x2 = 0.582 | x2 = 0.6783 | x2 = 0.7861 | x2 = 0.894
298.15 K | 0.761 | 0.726 | 0.684 | 0.641 | 0.595 | 0.54 | 0.493 | 0.44 | 0.388
303.15 K | 0.71 | 0.681 | 0.641 | 0.601 | 0.558 | 0.51 | 0.465 | 0.417 | 0.37
308.15 K | 0.663 | 0.639 | 0.604 | 0.565 | 0.526 | 0.48 | 0.44 | 0.396 | 0.353
